Experimental data from PMC6265310, “Purification, Characterization and in vitro Evaluation of Polymyxin A From Paenibacillus dendritiformis: An Underexplored Member of the Polymyxin Family” (Frontiers in Microbiology, 2018).
Read-outs that look alike come from different tables or passages of the source. Where a SMILES comes first, the peptide text is derived from it. Bridges are numbered along the chain shown (N, C = ends). [ ]: non-standard residue; d: D form. The star is where a group is joined. X1 = CC[C@H](C)CCCCC(=O)*; dDab = NCC[C@@H](N)C(=O)O; Dab = NCC[C@H](N)C(=O)O

Assays:
[1] = system: human embryonic kidney cell line (HEK293 ATCC CRL-1573); type: cell-based
Protocol: (§1) 3-(4,5-dimethylthiazol-2-yl)-2,5-diphenyltetrazolium bromide (MTT) assay was employed to examine the cytotoxicity against human leukemic monocyte cell line (THP-1 ATCC TIB-202) and human embryonic kidney cell line (HEK293 ATCC CRL-1573) as explained by [Kaur et al. (2017)]. Toxicity of both compounds was compared with polymyxin B and colistin at concentrations ranging from 62.5 to1000 μg/ml.

[2] = system: human leukemic monocyte cell line (THP-1 ATCC TIB-202); type: cell-based
Protocol: as §1

[3] = system: Acinetobacter baumannii ATCC 19606; details: Acinetobacter baumannii ATCC 19606; Ca-MHB, 37°C, 20–24 h
[4] = system: Escherichia coli ATCC 25922; details: Escherichia coli ATCC 25922
[5] = system: Escherichia coli ATCC 35218; details: Escherichia coli ATCC 35218
[6] = system: Klebsiella pneumoniae ATCC BAA1706; details: Klebsiella pneumoniae ATCC BAA1706
[7] = system: Klebsiella pneumoniae ATCC 700603; details: Klebsiella pneumoniae ATCC 700603
[8] = system: Klebsiella pneumoniae ATCC 29665; details: Klebsiella pneumoniae ATCC 29665
[9] = system: Klebsiella pneumoniae ATCC- BAA 2146; details: Klebsiella pneumoniae ATCC- BAA 2146
[10] = system: Pseudomonas aeruginosa ATCC 27853; details: Pseudomonas aeruginosa ATCC 27853
[11] = system: Vibrio parahaemolyticus ATCC17802
[12] = system: Vibrio cholerae MTCC 3906
[13] = system: Bacillus subtilis ATCC 6633; details: Bacillus subtilis ATCC 6633
[14] = system: Staphylococcus aureus ATCC 25923; details: Staphylococcus aureus ATCC 25923
[15] = system: Enterococcus faecalis ATCC 51299; details: Enterococcus faecalis ATCC 51299
[16] = system: LPS (E. coli strain 055:B5 origin); type: binding; details: read-out: Dissociation constant (Kd)
P. aeruginosa ATCC 27853 = test: Time-kill kinetics; type: cell-based; details: P. aeruginosa ATCC 27853, 2xMIC
[17] = THP-1 cells, MTT, 62.5 to 1000 μg/ml

CC[C@H](C)CCCCC(=O)N[C@@H](CCN)C(=O)N[C@H](C(=O)N[C@H](CCN)C(=O)N[C@H]1CCNC(=O)[C@H]([C@@H](C)O)NC(=O)[C@H](CCN)NC(=O)[C@H](CCN)NC(=O)[C@H]([C@@H](C)O)NC(=O)[C@@H](CC(C)C)NC(=O)[C@H](CCN)NC1=O)[C@@H](C)O [P2, polymyxin A1] (X1-[Dab]T[dDab][Dab][Dab][dL]T[Dab][Dab]T; lactam 4-C)
8 µg/mL: MIC [12] | MIC [13]
>16 µg/mL: MIC [14] | MIC [15]
0.5 µg/mL: MIC [5] | MIC (K. Pneumoniae GMCH 16; GMCH 16) | MIC (K. Pneumoniae 1573; 1573) | MIC (K. Pneumoniae GMCH13; GMCH13) | MIC (K. Pneumoniae GMCH04; GMCH04) | MIC (E. coli 7534; 7534) | MIC (E. coli 14363; 14363) | MIC (E. coli 3185; 3185) | MIC (E. coli 14504; 14504) | MIC (E. coli 14084; 14084) | MIC (A. baumannii GMCH18; GMCH18)
500 µg/mL: IC50 [2]
2 µg/mL: MIC (K. Pneumoniae 1428; 1428) | MIC (P. aeruginosa PA1; PA1) | MIC (P. aeruginosa PA2; PA2) | MIC (P. aeruginosa PA3; PA3) | MIC (P. aeruginosa PA5; PA5) | MIC (P. aeruginosa PA6; PA6)
highest toxicity among four compounds: toxicity ranking against HEK cells [1]
1 µg/mL: MIC [3] | MIC [4] | MIC [6] | MIC [7] | MIC [8] | MIC [9] | MIC [10] | MIC [11] | MIC (K. Pneumoniae GMCH10; GMCH10) | MIC (K. Pneumoniae GMCH12; GMCH12) | MIC (K. Pneumoniae GMCH11; GMCH11) | MIC (K. Pneumoniae 827; 827) | MIC (K. Pneumoniae B8; B8) | MIC (P. aeruginosa GMCH06; GMCH06) | MIC (P. aeruginosa PA4; PA4) | MIC (E. coli 9062; 9062) | MIC (E. coli 7210; 7210) | MIC (E. coli 7932; 7932) | MIC (E. coli 13425; 13425) | MIC (A. baumannii GMCH 14; GMCH 14) | MIC (A. baumannii GMCH05; GMCH05) | MIC (A. baumannii AB1; AB1) | MIC (A. baumannii AB2; AB2)

polymyxin E (colistin) [PE, reference compound]
above 1000 μg/ml: IC50 ([1]; HEK293 cells, MTT, 62.5 to 1000 μg/ml)
>16 µg/mL: MIC [12] | MIC [14] | MIC [15]
0.5 µg/mL: MIC [5] | MIC [6] | MIC [8] | MIC [9] | MIC (K. Pneumoniae GMCH04; K. Pneumoniae GMCH04, MDR clinical isolate) | MIC (K. Pneumoniae GMCH11; K. Pneumoniae GMCH11, MDR clinical isolate) | MIC (E. coli 7534; E. coli 7534, MDR clinical isolate) | MIC (E. coli 14363; E. coli 14363, MDR clinical isolate) | MIC (E. coli 3185; E. coli 3185, MDR clinical isolate) | MIC (E. coli 14084; E. coli 14084, MDR clinical isolate)
7.04 µM: Kd [16]
2 µg/mL: MIC (K. Pneumoniae 1428; K. Pneumoniae 1428, MDR clinical isolate) | MIC (P. aeruginosa PA1; P. aeruginosa PA1, MDR clinical isolate) | MIC (P. aeruginosa PA2; P. aeruginosa PA2, MDR clinical isolate) | MIC (P. aeruginosa PA3; P. aeruginosa PA3, MDR clinical isolate) | MIC (P. aeruginosa PA5; P. aeruginosa PA5, MDR clinical isolate) | MIC (P. aeruginosa PA6; P. aeruginosa PA6, MDR clinical isolate)
> 250 µg/mL: IC50 [2, 17]
1 µg/mL: MIC [3] | MIC [4] | MIC [7] | MIC [10] | MIC [11] | MIC (K. Pneumoniae GMCH 16; K. Pneumoniae GMCH 16, MDR clinical isolate) | MIC (K. Pneumoniae GMCH10; K. Pneumoniae GMCH10, MDR clinical isolate) | MIC (K. Pneumoniae 1573; K. Pneumoniae 1573, MDR clinical isolate) | MIC (K. Pneumoniae GMCH13; K. Pneumoniae GMCH13, MDR clinical isolate) | MIC (K. Pneumoniae GMCH12; K. Pneumoniae GMCH12, MDR clinical isolate) | MIC (K. Pneumoniae 827; K. Pneumoniae 827, MDR clinical isolate) | MIC (K. Pneumoniae B8; K. Pneumoniae B8, MDR clinical isolate) | MIC (P. aeruginosa GMCH06; P. aeruginosa GMCH06, MDR clinical isolate) | MIC (P. aeruginosa PA4; P. aeruginosa PA4, MDR clinical isolate) | MIC (E. coli 9062; E. coli 9062, MDR clinical isolate) | MIC (E. coli 7210; E. coli 7210, MDR clinical isolate) | MIC (E. coli 7932; E. coli 7932, MDR clinical isolate) | MIC (E. coli 14504; E. coli 14504, MDR clinical isolate) | MIC (E. coli 13425; E. coli 13425, MDR clinical isolate) | MIC (A. baumannii GMCH 14; A. baumannii GMCH 14, MDR clinical isolate) | MIC (A. baumannii GMCH18; A. baumannii GMCH18, MDR clinical isolate) | MIC (A. baumannii GMCH05; A. baumannii GMCH05, MDR clinical isolate) | MIC (A. baumannii AB1; A. baumannii AB1, MDR clinical isolate) | MIC (A. baumannii AB2; A. baumannii AB2, MDR clinical isolate)
16 µg/mL: MIC [13]

polymyxin B [PB, reference compound]
0.5 µg/mL: MIC [5] | MIC (K. Pneumoniae GMCH 16) | MIC (K. Pneumoniae GMCH04) | MIC (E. coli 14363) | MIC (E. coli 3185) | MIC (E. coli 14084)
>16 µg/mL: MIC [15]
1 µg/mL: MIC [3] | MIC [4] | MIC [6] | MIC [7] | MIC [8] | MIC [9] | MIC [10] | MIC [11] | MIC (K. Pneumoniae GMCH10) | MIC (K. Pneumoniae 1573) | MIC (K. Pneumoniae GMCH13) | MIC (K. Pneumoniae GMCH12) | MIC (K. Pneumoniae GMCH11) | MIC (K. Pneumoniae 827) | MIC (K. Pneumoniae B8) | MIC (P. aeruginosa GMCH06) | MIC (P. aeruginosa PA4) | MIC (E. coli 7534) | MIC (E. coli 9062) | MIC (E. coli 7210) | MIC (E. coli 7932) | MIC (E. coli 14504) | MIC (E. coli 13425) | MIC (A. baumannii GMCH 14) | MIC (A. baumannii GMCH18) | MIC (A. baumannii GMCH05) | MIC (A. baumannii AB1) | MIC (A. baumannii AB2)
2 h: time to kill (P. aeruginosa ATCC 27853)
4 µg/mL: MIC [13]
3.39 µM: Kd [16]
2 µg/mL: MIC (K. Pneumoniae 1428) | MIC (P. aeruginosa PA1) | MIC (P. aeruginosa PA2) | MIC (P. aeruginosa PA3) | MIC (P. aeruginosa PA5) | MIC (P. aeruginosa PA6)
8 µg/mL: MIC [12]
125 µg/mL: IC50 [2, 17]
16 µg/mL: MIC [14]
